Results on 16 molecules are retold here after patent US20250163048A1 (Tango Therapeutics, Inc., priority 2022, published 2025).

Assay [1] has as its system MTAP-deleted cell line. Briefly: viability assay for the MTAP-deleted cell line. Type of assay: cell-based. The following applies: Homo sapiens, HAP1, viability assay.
Assay [2] relates to HAP1 MTAP-intact cell line. Briefly: SDMA in-cell western assay, HAP1 MTAP-intact. To be noted: Homo sapiens.
Assay [3] concerns HAP1 MTAP-deleted cell line. Nature of the assay: SDMA in-cell western assay, HAP1 MTAP-deleted. To be noted: for pIC50 / IC90: Homo sapiens; for pIC50: HAP1, read-out: Hap1 MTAP deleted IC50, SDMA in-cell western, HAP1 MTAP-deleted cell line; for IC90: HAP1, read-out: Hap1 MTAP deleted IC90, SDMA in-cell western, HAP1 MTAP-deleted cell line; for Hap1 MTAP intact/deleted ratio: IC50 ratio between HAP1 MTAP-intact and HAP1 MTAP-deleted cell line, SDMA in-cell western.

[4] abbreviates: HAP1, read-out: Hap1 MTAP intact IC50, SDMA in-cell western, HAP1 MTAP-intact cell line.

pIC50: −log10 of the molar value. Read-outs that look alike come from different tables or passages of the source. Some results are limits rather than exact numbers.

By pIC50 is commonly meant −log10 of the IC50, conventionally taken in molar units. In general, IC90 refers to the point of the concentration-response curve where the effect stands at 90%. As to `C[C@H]1CC[C@H](c2ccc3sc(CC4CCN(C)CC4)nc3c2)N(C(=O)C(=O)Nc2cncc3cn[nH]c23)C1` [Compound 61, 2-((2R,5S)-5-methyl-2-(2-((1-methylpiperidin-4-yl)methyl)benzo[d]thiazol-5-yl)piperidin-1-yl)-2-oxo-N-(1H-pyrazolo[4,3-c]pyridin-7-yl)acetamide], the pIC50 was more than 7.00 in assay [1], 7.30 to 8.30 in assay [2] (setting [4]) and more than 8.30 in assay [3]. For the same molecule, the IC90 in assay [3] was less than 0.075 µM. The “Hap1 MTAP intact/deleted ratio” value in assay [3] is given as “B (“B” indicates an IC50 ratio greater than or equal to 15 fold but lower than 30 fold)”.
In the same order, the values of `C[C@H]1CC[C@H](c2ccc3sc(C4CN(C)C4)nc3c2)N(C(=O)C(=O)Nc2cncc3cn[nH]c23)C1` [Compound 62, 2-((2R,5S)-5-methyl-2-(2-(1-methylazetidin-3-yl)benzo[d]thiazol-5-yl)piperidin-1-yl)-2-oxo-N-(1H-pyrazolo[4,3-c]pyridin-7-yl)acetamide] are more than 7.00, 7.30 to 8.30, more than 8.30, less than 0.075 µM and “B (“B” indicates an IC50 ratio greater than or equal to 15 fold but lower than 30 fold)”.
The like results for `C[C@H]1CC[C@H](c2ccc3sc([C@H]4C[C@H](N(C)C)C4)nc3c2)N(C(=O)C(=O)Nc2cncc3cn[nH]c23)C1` [Compound 64, 2-((2R,5S)-2-(2-(3-(dimethylamino)cyclobutyl)benzo[d]thiazol-5-yl)-5-methylpiperidin-1-yl)-2-oxo-N-(1H-pyrazolo[4,3-c]pyridin-7-yl)acetamide] were, in that order, more than 7.00, 7.30 to 8.30, more than 8.30, less than 0.075 µM and “B (“B” indicates an IC50 ratio greater than or equal to 15 fold but lower than 30 fold)”.
In the same order, the values of `C[C@H]1CC[C@H](c2ccc3nn(C4CN(C)C4)cc3c2)N(C(=O)C(=O)Nc2cncc3cn[nH]c23)C1` [Compound 66, 2-((2R,5S)-5-methyl-2-(2-(1-methylazetidin-3-yl)-2H-indazol-5-yl)piperidin-1-yl)-2-oxo-N-(1H-pyrazolo[4,3-c]pyridin-7-yl)acetamide] are 6.00 to 7.00, less than 7.30, 7.30 to 8.30, more than 0.125 µM and “A (“A” indicates an IC50 ratio greater than or equal to 30 fold)”.
As for `C[C@H]1CC[C@H](c2ccc3sc(C4CC(C)(C)N(C)C(C)(C)C4)nc3c2)N(C(=O)C(=O)Nc2ccn3ccnc3c2)C1` [Compound 67, N-(imidazo[1,2-a]pyridin-7-yl)-2-((2R,5S)-5-methyl-2-(2-(1,2,2,6,6-pentamethylpiperidin-4-yl)benzo[d]thiazol-5-yl)piperidin-1-yl)-2-oxoacetamide], the pIC50 in assay [1] was more than 7.00. Further, the pIC50 in assay [2] (setting [4]) is 7.30 to 8.30. Also, in assay [3], the pIC50 was more than 8.30, the IC90 was less than 0.075 µM and the “Hap1 MTAP intact/deleted ratio” value is listed as “B (“B” indicates an IC50 ratio greater than or equal to 15 fold but lower than 30 fold)”.
The molecule `C[C@H]1CC[C@H](c2ccc3ccccc3c2)N(C(=O)C(=O)Nc2cnc(N)c3cn[nH]c23)C1` [Compound 79, N-(4-amino-1H-pyrazolo[4,3-c]pyridin-7-yl)-2-((2R,5S)-5-methyl-2-(naphthalen-2-yl)piperidin-1-yl)-2-oxoacetamide] gave a pIC50 in assay [1] of more than 7.00. In addition, the pIC50 in assay [2] (setting [4]) is 7.30 to 8.30. In assay [3], the pIC50 was more than 8.30, the IC90 is less than 0.075 µM and the “Hap1 MTAP intact/deleted ratio” value is “A (“A” indicates an IC50 ratio greater than or equal to 30 fold)”.
`C[C@H]1CC[C@H](c2ccc3ncccc3c2)N(C(=O)C(=O)Nc2cnc(N)c3cn[nH]c23)C1` [Compound 83, N-(4-amino-1H-pyrazolo[4,3-c]pyridin-7-yl)-2-((2R,5S)-5-methyl-2-(quinolin-6-yl)piperidin-1-yl)-2-oxoacetamide] had a pIC50 in assay [1] of more than 7.00. Also, the pIC50 in assay [2] (setting [4]) is 7.30 to 8.30. In addition, in assay [3], the pIC50 was more than 8.30, the IC90 is less than 0.075 µM and the “Hap1 MTAP intact/deleted ratio” value is recorded as “B (“B” indicates an IC50 ratio greater than or equal to 15 fold but lower than 30 fold)”.
`C[C@H]1CC[C@H](c2ccc3sc([C@@H](C)CN4CCCC4)nc3c2)N(C(=O)C(=O)Nc2cncc3cn[nH]c23)C1` [Compound 86, 2-oxo-N-(1H-pyrazolo[4,3-c]pyridin-7-yl)-2-[(2R,5S)-5-methyl-2-[2-[(1S)-1-methyl-2-pyrrolidin-1-yl-ethyl]-1,3-benzothiazol-5-yl]-1-piperidyl]acetamide]: in assay [1], the pIC50 was more than 7.00. For the same molecule, in assay [2] (setting [4]), the pIC50 was less than 7.30. In addition, in assay [3], the pIC50 was more than 8.30, the IC90 is less than 0.075 µM and the “Hap1 MTAP intact/deleted ratio” value is reported as “B (“B” indicates an IC50 ratio greater than or equal to 15 fold but lower than 30 fold)”.
Turning to `C[C@H]1CC[C@H](c2ccc3sc(C4CCN(C)CC4)nc3c2)N(C(=O)C(=O)Nc2cnc3c(c2)C(=O)NC3)C1` [Compound 87, 2-oxo-N-(5-oxo-6,7-dihydropyrrolo[3,4-b]pyridin-3-yl)-2-[(2R,5S)-5-methyl-2-[2-(1-methyl-4-piperidyl)-1,3-benzothiazol-5-yl]-1-piperidyl]acetamide], the pIC50 in assay [1] is 6.00 to 7.00. Also, in assay [2] (setting [4]), the pIC50 is less than 7.30. For the same molecule, in assay [3], the pIC50 was 7.30 to 8.30, the IC90 is more than 0.125 µM and the “Hap1 MTAP intact/deleted ratio” value is on record as “A (“A” indicates an IC50 ratio greater than or equal to 30 fold)”.
Turning to `C[C@H]1CC[C@H](c2ccc3cn(C4CCN(C)CC4)nc3c2)N(C(=O)C(=O)Nc2cncc3cn[nH]c23)C1` [Compound 90, 2-oxo-N-(1H-pyrazolo[4,3-c]pyridin-7-yl)-2-[(2R,5S)-5-methyl-2-[2-(1-methyl-4-piperidyl)indazol-6-yl]-1-piperidyl]acetamide], in assay [1], the pIC50 was more than 7.00. In assay [2] (setting [4]), the pIC50 is 7.30 to 8.30. Moreover, in assay [3], the pIC50 was more than 8.30, the IC90 was less than 0.075 µM and the “Hap1 MTAP intact/deleted ratio” value is reported as “B (“B” indicates an IC50 ratio greater than or equal to 15 fold but lower than 30 fold)”.
`C[C@H]1CC[C@H](c2ccc3sc(C4CCN(C)CC4)nc3c2)N(C(=O)C(=O)Nc2ccn3ccnc3c2)C1` [Compound 91, N-(imidazo[1,2-a]pyridin-7-yl)-2-((2R,5S)-5-methyl-2-(2-(1-methylpiperidin-4-yl)benzo[d]thiazol-5-yl)piperidin-1-yl)-2-oxoacetamide]: the pIC50 in assay [1] is more than 7.00. Also, the pIC50 in assay [2] (setting [4]) is 7.30 to 8.30. For the same molecule, in assay [3], the pIC50 was more than 8.30, the IC90 was less than 0.075 µM and the “Hap1 MTAP intact/deleted ratio” value is “B (“B” indicates an IC50 ratio greater than or equal to 15 fold but lower than 30 fold)”.
In the same order, the values of `C[C@H]1CC[C@H](c2ccc3sc(C4CC5(C4)CN(C)C5)nc3c2)N(C(=O)C(=O)Nc2cncc3cn[nH]c23)C1` [Compound 93, 2-((2R,5S)-5-methyl-2-(2-(2-methyl-2-azaspiro[3.3]heptan-6-yl)benzo[d]thiazol-5-yl)piperidin-1-yl)-2-oxo-N-(1H-pyrazolo[4,3-c]pyridin-7-yl)acetamide] are more than 7.00, 7.30 to 8.30, more than 8.30, less than 0.075 µM and “C (“C” indicates an IC50 ratio of less than 15 fold)”.
Turning to `C[C@H]1CC[C@H](c2ccc3sc(C4CCN(C)CC4)nc3c2)N(C(=O)C(=O)Nc2cncc3cn[nH]c23)C1` [Compound 94, 2-oxo-N-(1H-pyrazolo[4,3-c]pyridin-7-yl)-2-[(2R,5S)-5-methyl-2-[2-(1-methyl-4-piperidyl)-1,3-benzothiazol-5-yl]-1-piperidyl]acetamide], the pIC50 in assay [1] is more than 7.00; in assay [2] (HAP1, read-out: Hap1 MTAP intact IC50), 7.30 to 8.30; in assay [3], more than 8.30. The IC90 in assay [3] was less than 0.075 µM. In addition, the “Hap1 MTAP intact/deleted ratio” value in assay [3] is “B (“B” indicates an IC50 ratio greater than or equal to 15 fold but lower than 30 fold)”.
Turning to `CC(CN1CCCC1)c1nc2cc([C@H]3CC[C@H](C)CN3C(=O)C(=O)Nc3cncc4cn[nH]c34)ccc2s1` (stereo partly drawn) [Compound 100, 2-((2R,5S)-5-methyl-2-(2-(1-(pyrrolidin-1-yl)propan-2-yl)benzo[d]thiazol-5-yl)piperidin-1-yl)-2-oxo-N-(1H-pyrazolo[4,3-c]pyridin-7-yl)acetamide], the pIC50 in assay [1] was more than 7.00. The pIC50 in assay [2] (setting [4]) is less than 7.30. In addition, in assay [3], the pIC50 is more than 8.30, the IC90 was less than 0.075 µM and the “Hap1 MTAP intact/deleted ratio” value is on record as “A (“A” indicates an IC50 ratio greater than or equal to 30 fold)”.
In the same order, the values of `C[C@H]1CC[C@H](c2ccc3sc(CCN4CCCC4)nc3c2)N(C(=O)C(=O)Nc2cncc3[nH]ncc23)C1` [Compound 102, 2-((2R,5S)-5-methyl-2-(2-(2-(pyrrolidin-1-yl)ethyl)benzo[d]thiazol-5-yl)piperidin-1-yl)-2-oxo-N-(1H-pyrazolo[3,4-c]pyridin-4-yl)acetamide] are more than 7.00, less than 7.30, more than 8.30, less than 0.075 µM and “A (“A” indicates an IC50 ratio greater than or equal to 30 fold)”.
In the case of `C[C@H]1CC[C@H](c2ccc3nn([C@H]4CCN(C)C4)cc3c2)N(C(=O)C(=O)Nc2cncc3cn[nH]c23)C1` [Compound 104, 2-oxo-N-(1H-pyrazolo[4,3-c]pyridin-7-yl)-2-[(2R,5S)-5-methyl-2-[2-[(3S)-1-methylpyrrolidin-3-yl]indazol-5-yl]-1-piperidyl]acetamide], in assay [1], the pIC50 is 6.00 to 7.00. For the same molecule, the pIC50 in assay [2] (setting [4]) was less than 7.30. Further, in assay [3], the pIC50 is 7.30 to 8.30, the IC90 is 0.075 to 0.125 µM and the “Hap1 MTAP intact/deleted ratio” value is “A (“A” indicates an IC50 ratio greater than or equal to 30 fold)”.
